Test results from ChEMBL document CHEMBL1148223, “Isolation and phytotoxicity of apocarotenoids from Chenopodium album” (2004).
Activity calls are given as the source filed them. The rule behind the calls is not given here.

Tests used:
Assay type in all cases: functional
[1] = system: Lactuca sativa; assay: Reduction of Lactuca sativa seeds germination at 100 uM daily for 5 days relative to control; design: Activity: scale not given: the % may be the effect or the level left; details: for inhibition at 100 µM: Lactuca sativa, 120 h
[2] = system: Lactuca sativa; assay: Reduction of Lactuca sativa length development; design: scale not given: the % may be the effect or the level left
[3] = system: Lactuca sativa; assay: Reduction of Lactuca sativa shoot length at 0.1 uM relative to control; design: scale not given: the % may be the effect or the level left
[4] = system: Lactuca sativa; assay: Reduction of Lactuca sativa root length at 0.1 uM relative to control; design: scale not given: the % may be the effect or the level left

SMILES: CC(=O)/C=C/C=C(C)/C=C/[C@H]1C(C)=C[C@H](O)CC1(C)C
- Activity [1]: 20%

SMILES: CC(=O)/C=C/[C@H]1C(C)=CC(=O)CC1(C)C
- inhibition at 100 µM [1]: 30%

SMILES: CC(=O)/C=C/[C@@]1(O)C(C)=CC(=O)CC1(C)C
- Activity [2]: 30%

SMILES: CC(=O)/C=C/[C@H]1C(C)=C[C@H](O)CC1(C)C
- inhibition at 100 µM [1]: 30%

SMILES: CC(=O)/C=C/C=C(C)/C=C/[C@@]1(O)C(C)=CC(=O)CC1(C)C
- Activity [1]: 20%

SMILES: CC(=O)C=C=C1C(C)(C)C[C@H](O)C[C@@]1(C)O
- Activity [3]: 30%
- Activity [4]: 20%

SMILES: CC1=CC(=O)CC(C)(C)[C@@]1(O)/C=C/C(C)=C/CO
- Activity [1]: Active

SMILES: CC1=CC(=O)CC(C)(C)[C@@]1(O)/C=C/[C@@H](C)O [BLUMENOL A]
- Activity [2]: 30%
